The subject of this test is amphetamine-induced symptoms. Description: antagonism of amphetamine-induced symptoms (cage movement) in rats. The class given is in vivo. Conditions: test compound i.p., 1 hr., d-amphetamine sulfate 5 mg./kg. i.p. given 1 hr. after compound, rated one hour after amphetamine. The text has this:
The tranquilizing agents of the present invention are characterized by relief of such schizophrenic manifestations in humans as hallucinations, hostility, suspiciousness, emotional or social withdrawal, anxiety, agitation and tension. Standard procedures of detecting and comparing tranquilizing activity of compounds in this series and for which there is an excellent correlation with human efficacy is the antagonism of amphetamine-induced symptoms in rats test, as taught by A. Weissman, et al., J. Pharmacol. Exp. Ther., 151, 339 (1966) and by Quinton, et al., Nature, 200, 178 (1963).
The effects of the compounds of the present invention on prominent amphetamine-induced symptoms were studied in rats by a rating scale modeled after the one reported by Quinton and Halliwell and by Weissman. Groups of five rats were placed in a covered plastic cage measuring approximately 26 × 42 × 16 cm. After a brief period of acclimation in the cage, the rats in each group were treated intraperitoneally (i.p.) with the test compound. […] On the basis of dose-response data after amphetamine it was possible to determine the effective dose of the compound necessary to antagonize or block the characteristic amphetamine behavior of cage movement for fifty percent of the rats tested (ED50). […]

Counter-ions that a name gives are not always drawn.

The values below come from patent publication US4044137A, “2-(Phenylthiopropyl)-5-aryl-1,2,3,4-tetrahydro-γ-carbolines” (Pfizer Inc., priority 1976, dated 1977).

For the compound `Fc1ccc(SCCCN2CCc3c(c4cc(F)ccc4n3-c3ccc(F)cc3)C2)cc1` [F F F 0, 8-Fluoro-5-(p-fluorophenyl)-2-[3-(p-fluorophenylthio)propyl]-1,2,3,4-tetrahydro-γ-carboline hydrochloride], the “ED50 (effective dose to antagonize or block the characteristic amphetamine behavior of cage movement for fifty percent of the rats tested)” value worked out at 32 mg/kg.

As for `[O-][S+](CCCN1CCc2c(c3cc(F)ccc3n2-c2ccc(F)cc2)C1)c1ccc(F)cc1` (centres unmarked) [F F F 1, 8-fluoro-5-(p-fluorophenyl)-2-[3-(p-fluorophenylsulfinyl)propyl]-1,2,3,4-tetrahydro-γ-carboline hydrochloride], the “ED50 (effective dose to antagonize or block the characteristic amphetamine behavior of cage movement for fifty percent of the rats tested)” value worked out at 10 mg/kg.
